Experimental data reported in ChEMBL document CHEMBL3352547, “A concise diastereoselective approach to enantioenriched substituted piperidines and their in vitro cytotoxicity evaluation” (Bioorg Med Chem Lett, 2014).

What was measured:
Type in all cases: functional, cell-based
DU-145 = assay: Cytotoxicity against human DU145 cells by MTT assay
MCF7 = assay: Cytotoxicity against human MCF7 cells by MTT assay
HeLa = assay: Cytotoxicity against human HeLa cells by MTT assay
A549 = assay: Cytotoxicity against human A549 cells by MTT assay
[1] = Homo sapiens, HeLa, read-out: IC50
[2] = Homo sapiens, A549, read-out: IC50
[3] = Homo sapiens, DU-145, read-out: IC50
[4] = Homo sapiens, MCF7, read-out: IC50

SMILES | IC50 (DU-145; du-145) | IC50 (MCF7; mcf7) | IC50 (HeLa; [1]) [µM] | IC50 (A549; [2]) [µM] | IC50 (DU-145; [3]) [µM] | IC50 (MCF7; [4]) [µM] | IC50 (HeLa; hela) | IC50 (A549; a549)
COC(=O)C[C@H]1C[C@H](O)[C@H](C)[C@@H](c2ccccc2)N1 | Not Active | Not Active | 41.1 | 69.2 |  |  |  | 
COC(=O)C[C@H]1C[C@@H](O)[C@@H](C)[C@@H](c2ccc(OC)cc2)N1 |  |  | 11.5 | 23.5 | 12.6 | 10.4 |  | 
COC(=O)C[C@H]1C[C@H](O)[C@@H](C)[C@@H](c2ccc(OC)cc2)N1 |  |  | 5.3 | 5.4 | 6.5 | 5.1 |  | 
COc1ccc([C@H]2N[C@@H](CCO)C[C@H](O)[C@H]2C)cc1 |  |  | 16.5 | 17.6 | 14.8 | 13.7 |  | 
COC(=O)C[C@@H]1C[C@H](O)[C@H](C)[C@H](c2ccccc2)N1 |  |  | 14.2 | 20.5 | 11.3 | 12.3 |  | 
COC(=O)C[C@@H]1C[C@@H](O)[C@H](C)[C@H](c2ccccc2)N1 |  |  | 6.5 | 8.5 | 6.3 | 5.4 |  | 
COC(=O)C[C@H]1C[C@H](O)[C@@H](C)[C@@H](c2ccc(C)cc2)N1 |  | Not Active |  | 97.6 | 330 |  | Not Active | 
C[C@H]1[C@H](O)C[C@@H](CCO)N[C@H]1c1ccccc1 |  |  | 31.5 | 31.2 | 41.6 | 39.8 |  | 
COc1ccc([C@H]2N[C@@H](CC(=O)O)C[C@H](O)[C@H]2C)cc1 |  |  | 19.9 | 20.1 | 15.7 | 12.5 |  | 
COC(=O)C[C@H]1C[C@@H](O)[C@@H](C)[C@@H](c2ccc(F)cc2)N1 |  |  | 19.8 | 26.6 | 51.7 | 15.6 |  | 
COC(=O)C[C@H]1C[C@H](O)[C@@H](C)[C@@H](c2ccc(C(C)C)cc2)N1 |  |  | 18.2 |  | 27.4 | 17.1 |  | Not Active
COC(=O)C[C@H]1C[C@@H](O)[C@H](C)[C@@H](c2ccccc2)N1 |  |  | 35.2 | 34.6 | 64.1 | 35.6 |  | 
COc1cccc2c1C(=O)c1c(O)c3c(c(O)c1C2=O)C[C@@](O)(C(=O)CO)C[C@@H]3O[C@H]1C[C@H](N)[C@H](O)[C@H](C)O1 [DOXORUBICIN] |  |  | 0.7 | 0.6 |  | 0.6 |  | 
COC(=O)C[C@H]1C[C@@H](O)[C@@H](C)[C@@H](c2ccc(C(C)C)cc2)N1 |  | Not Active |  |  | 110 |  | Not Active | Not Active
COC(=O)C[C@H]1C[C@H](O)[C@@H](C)[C@@H](c2ccc(F)cc2)N1 | Not Active |  | 17.4 | 17.2 |  | 18.2 |  | 
COC(=O)C[C@H]1C[C@@H](O)[C@@H](C)[C@@H](c2ccc(C)cc2)N1 |  |  | 13.4 | 29 | 49.7 | 12.2 |  | 
C[C@H]1[C@H](O)C[C@@H](CC(=O)O)N[C@H]1c1ccccc1 |  |  | 33.4 | 28.9 | 46.5 | 23.1 |  | 
